Source: US7304061B2, “Heterocyclic inhibitors of ERK2 and uses thereof” (Vertex Pharmaceuticals Incorporated, priority 2002, dated 2007)

Biological target: ERK2 (Homo sapiens, UniProt P28482)
Experiment: ERK2 inhibition assay (spectrophotometric coupled-enzyme assay)
Format: biochemical
Details: activated ERK2 10 nM, 65 μM ATP, 200 μM erktide peptide, 30° C., pH 7.5
Description: Compounds were assayed for the inhibition of ERK2 by a spectrophotometric coupled-enzyme assay (Fox et al (1998) Protein Sci 7, 2249). In this assay, a fixed concentration of activated ERK2 (10 nM) was incubated with various concentrations of the compound in DMSO (2.5%) for 10 min. at 30° C. in 0.1 M HEPES buffer, pH 7.5, containing 10 mM MgCl2, 2.5 mM phosphoenolpyruvate, 200 μM NADH, 150 μg/mL pyruvate kinase, 50 μg/mL lactate dehydrogenase, and 200 μM erktide peptide. The reaction was initiated by the addition of 65 μM ATP. The rate of decrease of absorbance at 340 nm was monitored. The Ki and IC50 were evaluated from the rate data as a function of inhibitor concentration.

Sequence of ERK2 (P28482 whole entry, species assumed): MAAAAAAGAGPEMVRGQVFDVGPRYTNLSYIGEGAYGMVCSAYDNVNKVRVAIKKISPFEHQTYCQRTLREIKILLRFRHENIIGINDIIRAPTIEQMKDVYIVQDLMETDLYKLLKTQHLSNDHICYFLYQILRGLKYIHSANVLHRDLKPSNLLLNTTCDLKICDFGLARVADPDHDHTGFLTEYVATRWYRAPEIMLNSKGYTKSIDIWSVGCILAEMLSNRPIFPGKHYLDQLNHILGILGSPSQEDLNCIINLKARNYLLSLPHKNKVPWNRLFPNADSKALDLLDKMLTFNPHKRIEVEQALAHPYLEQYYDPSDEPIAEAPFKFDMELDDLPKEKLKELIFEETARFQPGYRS

CCOc1ncc(C)c(-c2c[nH]c(C(=O)N[C@H](CO)c3ccccc3)c2)n1 [Compound I-22, 4-(5-methyl-2-ethoxy-pyrimidin-4-yl)-1H-pyrrole-2 carboxylic acid (2-hydroxy-1-(S)-phenyl-ethyl)-amide]
Ki: < 100 nM

Cc1cnc(-c2ccccc2)nc1-c1c[nH]c(C(=O)N[C@H](CO)c2ccccc2)c1 [Compound I-24, 4-(5-Methyl-2-phenyl-pyrimidin-4-yl)-1H-pyrrole-2 carboxylic acid (2-hydroxy-1-(S)-phenyl-ethyl)-amide]
Ki: < 100 nM
